Measurements from patent publication US5917056A (priority 1995, dated 1999).

What was measured:
[1] = adverse effects / tolerability (statement in words); details: compared with paclitaxel / prior art
MCF7 (Human breast) = test: Cytotoxicity on tumour cell lines, MCF7 (Human breast); type: cell-based; details: exposure time 72 h
Procedure: (§1) Standard conditions: basal medium=RPMI 1640+20 mM HEPES+2 mM L-glutamine.

HT-29 (Human colon) = test: Cytotoxicity on tumour cell lines, HT-29 (Human colon); type: cell-based; details: exposure time 72 h
Procedure: as §1

L1210 (murine leukemia) = test: Cytotoxicity on tumour cell lines, L1210 (murine leukemia); type: cell-based; details: Mus musculus, exposure time 72 h
Procedure: as §1

A121 (Human ovarian) = test: Cytotoxicity on tumour cell lines, A121 (Human ovarian); type: cell-based; details: exposure time 72 h
Procedure: as §1

tumours [2] = test: cytotoxic and antitumour activity (statement in words)
A549 (Human NSCLC) = test: Cytotoxicity on tumour cell lines, A549 (Human NSCLC); type: cell-based; details: exposure time 72 h
Procedure: as §1

tumours [3] = details: background art, cited from earlier work
[4] = clinical use, background art; cited from earlier work
MCF7-ADR (resistant) = test: cells; type: cell-based; details: Homo sapiens, NCI/ADR-RES, 72 h

| SMILES | drawbacks / tolerability [1] | IC50 (MCF7 (Human breast)) | IC50 (HT-29 (Human colon)) | IC50 (L1210 (murine leukemia)) | IC50 (A121 (Human ovarian)) | activity (in words) (tumours [2]) | IC50 (A549 (Human NSCLC)) | induction of resistance (tumours [3]) | anticancerogenic activity (tumours [3]; different forms of human tumours) | clinical drawbacks [4] | IC50 (MCF7-ADR (resistant)) |
| --- | --- | --- | --- | --- | --- | --- | --- | --- | --- | --- | --- |
| CCCCCC(=O)N[C@@H](C=C(C)C)[C@@H](O)C(=O)O[C@@H]1C(C)=C2[C@@H](OC(C)=O)C(=O)[C@@]3(C)[C@H]([C@H](OC(=O)c4ccccc4)[C@@]4(OC(=N)O[C@@H]14)C2(C)C)[C@]1(OC(C)=O)CO[C@@H]1C[C@@H]3O [Compound 8, 13-[(2R,3S)-3-caproylamino-2-hydroxy-3-isobutenyl-propanoyl]-14β-hydroxybaccatine III 1,14-iminocarbonate] | advantages compared with the compounds of the prior art in terms of both activity and tolerability | 0.8 ± 0.2 nM | 0.5 ± 0.1 nM | 2.4 ± 0.1 nM | 1.9 ± 0.2 nM | advantages compared with the compounds of the prior art in terms of both activity and tolerability | 2.1 ± 0.3 nM | – | – | – | – |
| CCCCCC(=O)N[C@@H](C=C(C)C)[C@@H](O)C(=O)O[C@@H]1C(C)=C2[C@@H](OC(C)=O)C(=O)[C@@]3(C)[C@H]([C@H](OC(=O)c4ccccc4)[C@@]4(OS(=O)O[C@@H]14)C2(C)C)[C@]1(OC(C)=O)CO[C@@H]1C[C@@H]3O (stereo partly drawn) [Compound 9, 13-[(2R,3S)-3-caproylamino-2-hydroxy-3-isobutenyl-propanoyl]-14β-hydroxybaccatine-III 1,14-sulfite] | advantages compared with the compounds of the prior art in terms of both activity and tolerability | 1 ± 0.3 nM | 0.5 ± 0.1 nM | 1.8 ± 0.1 nM | 1.1 ± 0.1 nM | advantages compared with the compounds of the prior art in terms of both activity and tolerability | 1.8 ± 0.2 nM | – | – | – | – |
| CC(=O)O[C@H]1C(=O)[C@@]2(C)[C@H]([C@H](OC(=O)c3ccccc3)[C@]3(O)C[C@H](OC(=O)[C@H](O)[C@@H](NC(=O)c4ccccc4)c4ccccc4)C(C)=C1C3(C)C)[C@]1(OC(C)=O)CO[C@@H]1C[C@@H]2O [Paclitaxel, paclitaxel, reference compound] | – | 4.8 ± 0.1 nM | 6.9 ± 0.4 nM | 7.5 ± 2 nM | 4.7 ± 0.3 nM | – | 5.7 ± 0.5 nM | induces resistance quickly | anticancerogenic activity on different forms of human tumours | cardiotoxicity | 395 ± 8.7 nM |
| CC(=O)O[C@H]1C(=O)[C@@]2(C)[C@H]([C@H](OC(=O)c3ccccc3)[C@]34OC(=S)O[C@H]3[C@H](OC(=O)[C@H](O)[C@H](CC(C)C)NC(=O)OC(C)(C)C)C(C)=C1C4(C)C)[C@]1(OC(C)=O)CO[C@@H]1C[C@@H]2O [Compound 5, 13-[(2R,3S)-3-tert-butoxycarbonyl-amino-2-hydroxy-3-isobutyl-propanoyl]-14β-hydroxybaccatine III 1,14-thiocarbonate] | – | 1.2 ± 0.2 nM | 0.3 ± 0.1 nM | 0.5 ± 0.1 nM | 0.8 ± 0.3 nM | particularly active | 2.3 ± 0.3 nM | – | – | – | – |
| CC(=O)O[C@H]1C(=O)[C@@]2(C)[C@H]([C@H](OC(=O)c3ccccc3)[C@]34OC(=S)O[C@H]3[C@H](OC(=O)[C@H](O)[C@H](C=C(C)C)NC(=O)OC(C)(C)C)C(C)=C1C4(C)C)[C@]1(OC(C)=O)CO[C@@H]1C[C@@H]2O [Compound 6, 13-[(2R,3S)-3-tert-butoxycarbonylamino-2-hydroxy-3-isobutenyl-propanoyl]-14β-hydroxybaccatine III 1,14-thiocarbonate] | – | – | – | – | – | particularly active | – | – | – | – | – |
| CCCCCC(=O)N[C@@H](C=C(C)C)[C@@H](O)C(=O)O[C@@H]1C(C)=C2[C@@H](OC(C)=O)C(=O)[C@@]3(C)[C@H]([C@H](OC(=O)c4ccccc4)[C@@]4(OC(=S)O[C@@H]14)C2(C)C)[C@]1(OC(C)=O)CO[C@@H]1C[C@@H]3O [Compound 7, 13-[(2R,3S)-3-caproylamino-2-hydroxy-3-isobutenyl-propanoyl]-14β-hydroxybaccatine III 1,14-thiocarbonate III] | – | – | – | – | – | particularly active | – | – | – | – | – |
